From patent US7582618B2 (priority 2002, dated 2009)
In brackets after ≈: the same amount, converted by molar mass. Several values for one entry are separate records, joined by “and”; a condition that tells them apart may be missing. Identical values can stand only once. Entries after “also recorded” stand apart in the source; their conditions may differ. Like-named read-outs stand apart in the source and are kept apart here.

Tests used:
[1] = test system: BVDV (strain NADL) in MDBK cells; assay: BVDV cell protection assay (CPA); type: cell-based; conditions: Bovine viral diarrhea virus isolates and strains
[2] = test system: BVDV I-N-dlns ncp in MDBK cells; assay: microbe, parasite or virus in culture; type: cell-based; conditions: Bovine viral diarrhea virus isolates and strains, read-out: Antiviral Efficacy EC90
[3] = test system: BVDV NADL cp in MDBK cells; assay: Plaque reduction assay; type: cell-based; conditions: Bovine viral diarrhea virus isolates and strains
Description: For each compound the effective concentration was determined in duplicate 24-well plates by plaque reduction assays. Cell monolayers were infected with 100 PFU/well of virus. Then, serial dilutions of test compounds in MEM supplemented with 2% inactivated serum and 0.75% of methyl cellulose were added to the monolayers. Cultures were further incubated at 37° C. for 3 days, then fixed with 50% ethanol and 0.8% Crystal Violet, washed and air-dried. Then plaques were counted to determine the concentration to obtain 90% virus suppression.

[4] = test system: BVDV; assay: Antiviral test (Table 8b); type: cell-based; conditions: Bovine viral diarrhea virus isolates and strains; table note: BHK for Bovine Viral Diarrhea Virus
[5] = test system: YFV; assay: microbe, parasite or virus in culture; type: cell-based; conditions: Yellow fever virus, read-out: YFV (Table 8b)
[6] = test system: CVB-2; assay: Antiviral test (Tables 8b, 8c); type: cell-based, Coxsackievirus B-2; conditions: Coxsackievirus
[7] = test system: Sb-1; assay: microbe, parasite or virus in culture; type: cell-based, poliovirus Sabin type-1; conditions: Enterovirus C
[8] = test system: REO-1; assay: Antiviral test (Tables 8b, 8c); type: cell-based, double-stranded RNA viruses
[9] = test system: CVB-3; assay: microbe, parasite or virus in culture; type: cell-based, Coxsackievirus B-3; conditions: Coxsackievirus, read-out: EC50 CVB-3
[10] = test system: CVA-9; assay: microbe, parasite or virus in culture; type: cell-based, Coxsackievirus A-9; conditions: Coxsackievirus, read-out: EC50 CVA-9
[11] = test system: YFV (Vero); assay: microbe, parasite or virus in culture; type: cell-based; conditions: Yellow fever virus
[12] = test system: EBV (Daudi); assay: microbe, parasite or virus in culture; type: cell-based; conditions: human gammaherpesvirus 4, Daudi
[13] = test system: Punta Toro A (LLC-MK2); assay: organism not typed; type: cell-based
[14] = Cytotoxicity (Table 10); type: cell-based; conditions: human, Daudi cells, EBV row
[15] = test system: West Nile virus; assay: microbe, parasite or virus in culture; type: cell-based; conditions: read-out: composite EC50 range, West Nile virus
[16] = test system: different strains of BVDV; assay: BVDV cell protection, plaque reduction and yield reduction assays, summary over strains; type: cell-based; conditions: Bovine viral diarrhea virus isolates and strains, all three assays
[17] = test system: BVDV RNA; assay: Intracellular BVDV RNA by Real Time RT-PCR in de novo-infected MDBK cells; type: cell-based; conditions: Bovine viral diarrhea virus isolates and strains, 18-hours post infection
[18] = test system: rig S15 mRNA; assay: Cellular housekeeping mRNA control by RT-PCR in MDBK cells; type: cell-based, bovine; conditions: up to 125 μM
[19] = in vitro; conditions: rhesus monkey
[20] = Cytotoxicity assay; conditions: human
[21] = Cytotoxicity (Table 10); conditions: dog, MDCK cells
[22] = Cytotoxicity (Table 10); conditions: human, A549 cells
[23] = Cytotoxicity (Table 10); conditions: human, KB cells
[24] = Cytotoxicity (Table 10); conditions: human, HeLa-Ohio cells
[25] = Human bone marrow clonogenic assay
[26] = In vitro stability in human plasma; conditions: human plasma or crude human cytidine/deoxycytidine deaminase preparation, 37° C.
[27] = Cytotoxicity (cell proliferation) assay; conditions: human, Huh7 hepatoma cells
[28] = Cytotoxicity (cell proliferation) assay; conditions: human
[29] = Cytotoxicity (cell proliferation) assay; conditions: hamster, BHK-21 kidney cells
[30] = test system: HepG2 cells; assay: Mitochondria toxicity assay, lactic acid production
[31] = test system: Huh7 cells; assay: as above; conditions: 10 μM, 4 days
[32] = Cytotoxicity on uninfected cells in parallel to the CPA; conditions: bovine, uninfected MDBK kidney cells
[33] = test system: HepG2 cells; assay: Transmission electron microscopy of mitochondrial ultrastructure; conditions: 10 μM, 14 days
[34] = Cellular DNA or RNA synthesis ([3H]-thymidine / [3H]-uridine incorporation); conditions: human, HepG2 cells

In the case of CC1(O)C(O)C(CO)OC1n1ccc(N)nc1=O (stereo not shown) [mCyd, 4-Amino-1-(3,4-dihydroxy-5-hydroxymethyl-3-methyl-tetrahydro-furan-2-yl)-1H-pyrimidine-2-one], the EC50 ([1]; 96 h, BVDV NADL cp, de novo infection, 4 days) is reported as 670 ± 220 nM, the EC50 ([1]; BVDV MOI 0.16) is reported as ~2200 nM and the EC90 [2] is reported as 1490 nM. The EC50 [3] was 2570 ± 350 nM, the EC90 ([3]; read-out: Antiviral Efficacy EC90) was 4.63 ± 0.72 µM and the EC50 [4] was 2300 nM. The EC50 [5] was 54 µM, the EC50 ([6]; Table 8c, read-out: EC50 CVB-2) was 11 µM and the EC50 ([6]; read-out: CVB-2 (Table 8b)) was 12 µM. For the same compound, the EC50 ([7]; read-out: EC50 Sb-1) was 6 µM, the EC50 ([7]; read-out: Sb-1 (Table 8b)) was 11.5 µM and the EC50 [8] was 13 µM. It also gave an EC50 [9] of 9 µM, an EC50 [10] of 26 µM and an EC50 [11] of 9 to 30 µM. For the same compound, the EC50 [12] was 25.5 µg/mL (≈ 99.1 µM), the EC50 [13] was > 200 µM and the CC50 [14] was > 50 µg/mL. The EC50 [15] was 46 to 97 µM, the EC50 ([16]; read-out: range of EC50 values against BVDV) was 300 to 2800 nM and the EC90 ([16]; read-out: range of EC90 values against BVDV) was 870 to 4800 nM. The EC50 ([17]; read-out: EC50, BVDV RNA levels) was 1700 nM, the EC90 ([17]; read-out: EC90, BVDV RNA levels) was 2300 nM and the “effect on level of rig S15 cellular mRNA control” value [18] was “No effect”. The CC50 [19] was > 200 µM, the CC50 ([20]; CC50, HFF, HCMV row) was 67 to 73 µg/mL and the CC50 ([20]; CC50, HFF, HSV-1 row) was > 100 µg/mL. The CC50 ([20]; CC50, HFF, HSV-2 row) was > 100 µg/mL, the CC50 ([20]; CC50, HFF, VZV row) was 67.8 µg/mL and the CC50 ([20]; CC50, rapidly proliferating HFF) was 16.9 µM. The CC50 ([21]; Influenza A/H1N1 row) was > 200 µM, the CC50 ([21]; Influenza A/H3N2 row) was 45 to 65 µM and the CC50 ([21]; Influenza B row) was 55 to 140 µM. For the same compound, the CC50 [22] was > 200 µM, the CC50 [23] was > 200 µM and 20 µg/mL to 30 µg/mL and the CC50 [24] was ≥ 20 µg/mL. The CC50 [25] was 13.9 ± 3.2 µM, the “in vitro stability / deamination to mUrd” value [26] was “remained essentially unchanged” and the CC50 at 4 days [27] was > 250 µM. The CC50 [28] was > 200 µM, the CC50 ([28]; HepG2 hepatoma cells on collagen-coated plates, CC50, HepG2 grown on collagen coated plates for 4 or 10 d) was ≥ 200 µM and the CC50 at 4 days ([28]; HepG2 hepatoma cells, CC50, HepG2, rapid cell division) was 161 µM. For the same compound, the CC50 at 4 days [29] was 132 µM, the “L-Lactate (% of Control), HepG2 Cells” value ([30]; 50 μM, 4 days) was 138.0 ± 8.9 % of Control and the “increase in lactic acid production” value ([30]; HepG2, 50 μM) was 38%. For the same compound, the “L-Lactate (% of Control), Huh7 Cells” value [31] was 98.0 ± 12.3 % of Control, the CC50 at 4 days [32] was 38 ± 9 µM and the “Electron Microscopy, Lipid Droplet Form.” value [33] was “Negative”. The “Electron Microscopy, Mito. Morphol.” value [33] was “No changes in cell architecture, or in mitochondrial number or morphology; also recorded: Normal^d”, the “cells with 1 to 2 enlarged mitochondria out of an average of 25 per cell” value [33] was 17% and the CC50 ([34]; probe [3H]-thymidine, CC50 DNA ([3H]Thymidine), 50% reduction of thymidine incorporation into cellular DNA) was 112 µM. For the same compound, the CC50 ([34]; probe [3H]-uridine, CC50 RNA ([3H]Uridine), 50% reduction of uridine incorporation into cellular RNA) was 186 µM.
